Tested on: AEGCY (jointed goatgrass)
Assay: Pre-emergence herbicidal activity, cool season
Format: in vivo, Aegilops cylindrica
Settings: GR80 = lowest tested rate (300, 100, 30, 10 g/ha) with 80% or greater inhibition; approx. 14 days after treating; 18/13° C.
Description: Tables 5 to 8 summarize results of tests conducted as described below to determine the pre-emergence herbicidal activity, in the form of a GR80 value, of illustrative compounds of this invention. […] Compounds of the invention were typically applied at rates of 300, 100, 30, and 10 g/ha. Where herbicidal activity was evident but 80% inhibition was not achieved at the highest rate tested, an asterisk (*) is shown in the following tables.
The pre-emergence tests were conducted by the following procedure. Topsoil was sieved to pass through a 1.27 cm screen. Fertilizer was added to the topsoil and the mixture was then sterilized by heating. The topsoil mixture was placed in a pot and compacted to a depth of 1.0 to 1.25 cm from the top of the pot. Seeds of each of several monocotyledonous and dicotyledonous annual plant species were placed on top of the soil. Additional soil was subsequently placed over the seeds to level-fill the pot. A known amount of each test compound dissolved or suspended in an appropriate organic solvent was diluted with a 50:50 mix of acetone and water and applied to the surface of the soil. After treatment the plants were placed in a greenhouse where they received 0.64 cm of overhead irrigation. All subsequent watering consisted of a light overhead mist and/or subirrigation as needed for germination and growth. Tables 5 and 6 below relate to warm season plant species which were placed after pre-emergence treatment in a greenhouse with a 30/21° C. day/night temperature regime. Tables 7 and 8 below relates to cool season plant species placed after pre-emergence treatment in a greenhouse or growth chamber with an 18/13° C. day/night temperature regime.
Approximately 14 days after planting and treating, the plants were observed and herbicidal efficacy recorded as percent inhibition by comparison with untreated plants.
The plant species usually regarded as weeds which were utilized in the tests are identified in the tables below according to the following legend, in which “d” indicates a dicotyledonous species and “m” a monocotyledonous species. All monocotyledonous species included in the tests herein are grasses.

CCN(CC)C(=O)n1cnc(S(=O)(=O)C(F)(F)C(F)(F)Br)n1 [Example 4]
Pre-emergence activity (GR80) AEGCY: * (activity observed, at least at highest rate, but <80% inhibition)

From US6461997B1, “Triazole sulfones having herbicidal activity” (Monsanto Technology LLC, priority 1999, dated 2002)
